Results taken from patent US12508275B2, “Neomycin based compounds, and pharmaceutical use thereof” (UNIVERSITÉ COTE D'AZUR, priority 2019, dated 2025).
pIC50: −log10 of the molar value.

What was measured:
[1] = tested on: Patient derived GSC (GB5); assay: Effect of compound treatment on GSC phenotype (adhesion, morphology), GB5; format: cell-based, human; conditions: three days
Text: FIG. 1: phase contrast images of GB5 morphology untreated (CTL DMSO) or treated with the indicated compound (“Cpd” denotes compound) at the indicated concentration. Control cells grow as non-adherent spheroids composed of numerous GSC. When differentiated the cells become adherent and spread on the culture dish.
B—Cell culture: Patient-derived cells GB5 were isolated from surgical resection of human primary GBM provided by the department of neurosurgery of the University Hospital of Nice. TG6 (patient-derived cell from primary GBM) and HNNSC25 (Human Normal Neural Stem Cells) have been provided by Dr Hervé Chneiweiss, University of Pierre and Marie Curie, Paris. The resulting primary cultures (GB5, TG6, HNNSC25) were grown in NS34+ medium containing EGF and bFGF (DMEM-F12 1/1 ratio, 10 mM glutamine, 10 mM Hepes, 0.025% Sodium bicarbonate, N2, G5, and B27).
Patient derived GSC (GB5) were treated with growing concentration of Compounds 9a-b and 18a-b (10 to 100 uM) during three days). […] Similar results have been obtained with TG6.

NESTIN expression in GB5 = assay: NESTIN expression by immunofluorescence in GB5; format: cell-based, human; conditions: GB5, seven days, growing concentrations
Method: (§1) FIG. 2: Compounds 9a-b and 18a-b effect on stemness marker expression, clonal expansion and mitosis in GB5 cells. (A) NESTIN expression was assessed by immunofluorescence in GB5 treated with increasing amount of Compounds 9a-b and 18a. The number of NESTIN positive cells was counted for each treatment and express as percentage of the control (100%). The results are the meaning of at least two separate experiments. […] (C) Clonal expansion analysis was performed with GB5 cells as described in the material and method section. Two and three weeks later, the number of spheroids is counted and reported as percentage of the initial number of cells in the well. The results are the meaning of a minimum of two separate experiments. (D) The number of mitosis in the culture was determined by the detection of the number of cells positive for histone H3 phosphorylated on ser-10 (H3-ser10). H3-ser10 expression was assessed by immunofluorescence in GB5 treated with increasing amount of Compounds 9a-b and 18a. The number of positive cells was counted for each treatment and express as percentage of the control (100%). The results are the meaning of at least two separate experiments.
(§2) III—Immunofluorescence assay: TG6 and GB5 were seeded at 2000 cells/well in 24 wells plate in NS34+ alone or containing 5, 7.5, 10, 12.5, 15, 20 and 25 uM of Compounds 9a-b and 18a-b. Cultures were incubated 4 days and the cells were fixed with 4% paraformaldehyde for 10 min at room temperature then washed with PBS. Cells were then incubated with ammonium chloride at 20 mM 5 min at room temperature and washed 5 times with PBS. Blocking and hybridization were realized in PBS containing 10% FCS and 0.1% Triton X100. Anti-Nestin and anti-H3Phospho serine 10 antibodies were incubated 2 hours at room temperature then washed with PBS. Fluorescence coupled secondary antibodies and Hoechst 33342 nuclei counterstaining reagent were hybridized one hour at room temperature. Cells were mounted with anti-fading agent then imaged, counted and quantified using fluorescent microscopy (TiE Nikon) and NiS software (Nikon).
Patient derived GSC (GB5) have been treated during seven days, with growing concentrations of compounds that have been capable of inducing changes of GSC morphology. To assess the consequence on stemness maintenance, we observed, by immunofluorescence, the expression of stemness and progenitor cells such as the NESTIN protein. […] The strongest effect has been obtained with Compounds 9a treatment (IC50=10 uM).

GB5 cells [2] = assay: Clonal expansion (clonal proliferation) of GB5; format: cell-based, human; conditions: GB5, spheroids counted after two and three weeks
Method: as §1
Clonal proliferation: TG6 and GB5 were seeded at 10 cells/well in 96 wells plate in NS34+ medium alone or containing growing concentration of Compounds 9a-b and 18a-b. Immediately after seeding, the real number of cells in the well was determined by direct count. Two and three weeks later, the resulting number of spheroids in each well was evaluated by a direct count. The % of clonal efficiency was calculated in dividing […].
(§3) It was further investigated the effects of selected compounds on GSC clonal expansion as well as their capacity of mitosis (FIGS. 2B and C). Compounds 9a-b and 18a treatment altered GSC clonal expansion and mitosis. The most efficient inhibition of clonal expansion was provided by Compound 9a treatment (IC50<10 uM) while both Compounds 9a-b were the most efficient for mitosis inhibition (IC50<10 uM) (FIGS. 2C and D).

GB5 cells [3] = assay: Mitosis: cells positive for histone H3 phosphorylated on ser-10, GB5; format: cell-based, human; conditions: GB5, H3-ser10 positive cells
Method: as §1, §2, §3

GB5 = assay: XTT toxicity assay on GSC (GB5); format: cell-based
Method: FIG. 4: Determination of compound toxicity on GSC and normal human cells. (A) GB5 were incubated with growing concentration of Compounds 9a-b and 18a. (B) human normal neural stem cell (NNSC), human normal kidney cells (NHEK), human normal hepatocytes (HEPRG) and (C) human endothelial cells (HUVEC) were treated with growing concentration of Compound 9a. 7 days later, the cells were subjected to an XTT assays as described in the method section. The results are the meaning of at least two separate experiments. Cell death was confirmed by trypan blue staining (not shown).
II—XTT assay: TG6 and GB5 were seeded at 2000 cells/well in 96 wells plate in NS34+ alone or containing 10, 20, 25, 50 and 100 uM of Compounds 9a-b and 18a-b. Cultures were incubated 4 days and the cell proliferation was evaluated as indicated by the manufacturer.
V—Toxicity tests: NNSC, GB5, TG6, HEK293, and HepaRG, HUVEC were seeded at 2000 cells/well in 96 wells plate in their respective culture mediums alone or containing growing concentration from 10 to 500 uM of Compounds 9a-b. Cultures were incubated 4 days and the cellular toxicity has been evaluated by XTT assays. Cell viability has been also assessed by counting living and dead cells with trypan blue staining.
XTT assays allows, through cell metabolism measurement, to determine a cytotoxic/cytostatic effects. Compounds 9a-b and 18a were tested for their eventual toxicity by XTT assays as described in the material and method section. At the working concentrations 10 to 25 uM, the compounds are not toxic for GSC (FIG. 4A). […] Compound 9a toxicity was further tested on normal neural stem cells (NNSC), human kidney (NHEK), human hepatocytes (HEPRG) and human endothelial cells (HUVEC). The compound is not toxic on NNSC, NHEK, HEPRG and HUVEC cells when used between 10 to 50 uM. At 100 uM and above, Compound 9a was toxic (FIG. 4).

GB5 cells [4] = assay: TMZ assay: GSC sensitivity to Temozolomide (XTT); format: cell-based, human; conditions: three days; for increase of TMZ sensitivity: GB5, TMZ 400 uM plus compound at 10 uM; for increase of TMZ sensitivity, maximal effect: GB5, TMZ 400 uM plus compound at 50 uM
Method: FIG. 5: Sensitivity to TMZ was assessed by comparing the percentage of dead cells between TMZ treated GB5 and TMZ treated GB5 in combination with Compound 9a. GB5 cells have been treated with 400 uM TMZ alone or in combination with growing concentrations of Compounds 9a-b and 18b. The results are the meaning of at least two separate experiments.
IV—TMZ assay: TG6 and GB5 were seeded at 2000 cells/well in 96 wells plate in NS34+ or treated with medium containing 400 uM of TMZ alone or mixed with 10, 25 and 50 uM of Compounds 9a-b and 18a-b. Cultures were incubated 4 days and the cell viability has been evaluated by XTT assays and a count of living and dead cells with trypan blue staining.
Temozolomide is the chemotherapy of reference for GBM treatment. In order to assess whether the compounds might sensitize GSC to TMZ, TMZ (400 uM) pretreated GB5 cells were incubated with 10, 25 and 50 uM of Compounds 9a-b and 18b. Three days later the experiment is stop and the cells were subjected to an XTT assays. […] Cell toxicity was confirmed by trypan blue staining.

Compound	adhesion and changes in GSC morphology ([1]; GB5, 10 uM)	NESTIN expression (NESTIN expression in GB5)	GSC clonal expansion (GB5 cells [2])	GSC mitosis (GB5 cells [3])	pIC50 (GB5 cells [3]; Homo sapiens, read-out: mitosis inhibition IC50)	toxicity for GSC (XTT) (GB5; GB5, 50 uM and higher)	toxicity for GSC (XTT) (GB5; GB5, 10 to 25 uM)	increase of TMZ sensitivity (GB5 cells [4]) [fold]	increase of TMZ sensitivity, maximal effect (GB5 cells [4]) [fold]	adhesion and changes in GSC morphology ([1]; GB5, 25 uM)
NCC1OC(OC2C(Cn3cc(CCC(=O)NCCc4nc(-c5nc(C(=O)NCCCCN=C(N)N)cs5)cs4)nn3)OC(OC3C(O)C(N)CC(N)C3OC3OC(CN)C(O)C(O)C3N)C2O)C(N)C(O)C1O (stereo not drawn) [Compound 9b, N-(4-((Diaminomethylene)amino)butyl)-2′-(2-(3-(1-methyl-1H-1,2,3-triazol-4-yl)propanamido)ethyl)-[2,4′-bithiazole]-4-carboxamide-neomycin]	induced adhesion and changes in GSC morphology	drop in NESTIN expression	altered	altered	> 5.00	relative toxicity	not toxic	1.8	2.8	–
NCCCCNCCCNC(=O)c1csc(-c2csc(CCNC(=O)CCC(=O)NCC3OC(OC4C(O)C(N)CC(N)C4OC4OC(CN)C(O)C(O)C4N)C(O)C3OC3OC(CN)C(O)C(O)C3N)n2)n1 (stereo not drawn) [Compound 18a, 4-((2-(4-((3-((4-aminobutyl)amino)propyl)carbamoyl)-[2,4′-bithiazol]-2′-yl)ethyl)amino)-4-oxobutanoic-amido-neomycin]	induced adhesion and changes in GSC morphology	drop in NESTIN expression	altered	altered	–	relative toxicity	not toxic	–	–	–
NCCCNC(=O)c1csc(-c2csc(CCNC(=O)CCC(=O)NCC3OC(OC4C(O)C(N)CC(N)C4OC4OC(CN)C(O)C(O)C4N)C(O)C3OC3OC(CN)C(O)C(O)C3N)n2)n1 (stereo not drawn) [Compound 18b, 4-((2-(4-((3-aminopropyl)carbamoyl)-[2,4′-bithiazol]-2′-yl)ethyl)amino)-4-oxobutanoic-amido-neomycin]	–	–	–	–	–	–	–	1.7	3	induced adhesion and changes in GSC morphology
